# Test results as given in publication PMC4648050, “Discovery of Inhibitors of Trypanosoma brucei by Phenotypic Screening of a Focused Protein Kinase Library” (Chemmedchem, 2015).
# Experiments:
# Format in all cases: biochemical, human/mammalian
# Conditions in all cases: compound at 10 μM, read-out: % of activity respect of the control
# S6K1 = S6K1 (Homo sapiens, UniProt P23443); experiment: Kinase panel: S6K1
# Experimental: (§1) The DDU kinase-focused compound set contains lead-like scaffolds that are designed to target protein kinases; they have kinase hinge binding motifs. Four of the 1H-imidazopyrazinones were screened against a human/mammalian kinase panel at the University of Dundee (http://www.kinase-screen.mrc.ac.uk) at a concentration of 10 μM. At the time of testing the panel contained 79 mammalian kinases selected to provide a broad coverage of the mammalian kinome (∼500 kinases in the human genome).[3] None of the compounds were active against any of the kinases at 10 μM.
# CK1 = CK1 (Homo sapiens, UniProt P48730); experiment: Kinase panel: CK1
# Experimental: as §1
# CSK = CSK (Homo sapiens, UniProt P41240); experiment: Kinase panel: CSK
# Experimental: as §1
# PRAK = biological target: T1, PRAK (Homo sapiens, UniProt Q8IW41); experiment: Kinase panel: PRAK
# T1 sequence (Q8IW41 1-473): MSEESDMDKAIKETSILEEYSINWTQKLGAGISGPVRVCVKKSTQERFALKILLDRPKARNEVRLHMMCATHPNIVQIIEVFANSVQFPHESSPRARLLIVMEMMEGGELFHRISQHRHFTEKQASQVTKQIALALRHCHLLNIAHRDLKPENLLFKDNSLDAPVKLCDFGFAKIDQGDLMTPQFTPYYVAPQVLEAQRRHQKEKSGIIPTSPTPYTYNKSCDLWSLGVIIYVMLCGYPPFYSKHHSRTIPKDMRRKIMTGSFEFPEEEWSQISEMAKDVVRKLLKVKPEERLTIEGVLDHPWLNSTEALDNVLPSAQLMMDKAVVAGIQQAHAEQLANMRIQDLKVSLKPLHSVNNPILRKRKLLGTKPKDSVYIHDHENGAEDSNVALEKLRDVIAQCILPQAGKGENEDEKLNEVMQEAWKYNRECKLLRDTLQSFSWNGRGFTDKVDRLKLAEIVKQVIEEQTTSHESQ
# Experimental: as §1
# Src = Src (Homo sapiens, UniProt P12931); experiment: Kinase panel: Src
# Experimental: as §1
# IGF-1R = IGF-1R (Homo sapiens, UniProt P08069); experiment: Kinase panel: IGF-1R
# Experimental: as §1
# MELK = MELK (Homo sapiens, UniProt Q14680); experiment: Kinase panel: MELK
# Experimental: as §1
# PIM3 = PIM3 (Homo sapiens, UniProt Q86V86); experiment: Kinase panel: PIM3
# Experimental: as §1
# PKBa = PKBa (Homo sapiens, UniProt P31749); experiment: Kinase panel: PKBa
# Experimental: as §1
# MST4 = MST4 (Homo sapiens, UniProt Q9P289); experiment: Kinase panel: MST4
# Experimental: as §1
# MARK3 = MARK3 (Homo sapiens, UniProt P27448); experiment: Kinase panel: MARK3
# Experimental: as §1
# SRPK1 = SRPK1 (Homo sapiens, UniProt Q96SB4); experiment: Kinase panel: SRPK1
# Experimental: as §1
# JNK2 = JNK2 (Homo sapiens, UniProt P45984); experiment: Kinase panel: JNK2
# Experimental: as §1
# SGK1 = biological target: T2, SGK1 (Homo sapiens, UniProt O00141); experiment: Kinase panel: SGK1
# T2 sequence (O00141 1-431): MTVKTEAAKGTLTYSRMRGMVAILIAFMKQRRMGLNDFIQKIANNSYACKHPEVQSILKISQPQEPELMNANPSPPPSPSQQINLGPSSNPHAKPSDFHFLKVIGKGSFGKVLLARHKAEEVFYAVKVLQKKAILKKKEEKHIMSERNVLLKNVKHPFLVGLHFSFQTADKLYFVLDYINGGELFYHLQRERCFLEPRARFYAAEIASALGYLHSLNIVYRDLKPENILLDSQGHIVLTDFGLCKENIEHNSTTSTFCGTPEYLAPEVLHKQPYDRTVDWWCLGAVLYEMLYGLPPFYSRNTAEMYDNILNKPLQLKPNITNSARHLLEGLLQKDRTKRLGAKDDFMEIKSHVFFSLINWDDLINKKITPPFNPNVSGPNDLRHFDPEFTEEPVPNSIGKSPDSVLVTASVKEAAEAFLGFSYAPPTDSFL
# Experimental: as §1
# DYRK1A = DYRK1A (Homo sapiens, UniProt Q13627); experiment: Kinase panel: DYRK1A
# Experimental: as §1
# PIM2 = PIM2 (Homo sapiens, UniProt Q9P1W9); experiment: Kinase panel: PIM2
# Experimental: as §1
# CDK2-Cyclin A = CDK2-Cyclin A (Homo sapiens, UniProt P24941); experiment: Kinase panel: CDK2-Cyclin A
# Experimental: as §1
# p38g MAPK = biological target: T3, p38g MAPK (Homo sapiens, UniProt P53778); experiment: Kinase panel: p38g MAPK
# T3 sequence (P53778 1-367): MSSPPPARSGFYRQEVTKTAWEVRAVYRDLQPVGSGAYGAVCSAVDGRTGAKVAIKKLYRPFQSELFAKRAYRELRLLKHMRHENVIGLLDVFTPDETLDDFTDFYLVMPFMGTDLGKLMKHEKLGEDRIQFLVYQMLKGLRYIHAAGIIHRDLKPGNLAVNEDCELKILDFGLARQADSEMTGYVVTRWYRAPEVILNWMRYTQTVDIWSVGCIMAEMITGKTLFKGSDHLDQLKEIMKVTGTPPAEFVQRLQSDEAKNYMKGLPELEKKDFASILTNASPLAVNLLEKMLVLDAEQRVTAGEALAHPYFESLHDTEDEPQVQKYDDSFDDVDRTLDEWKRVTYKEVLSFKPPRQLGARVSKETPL
# Experimental: as §1
# Sequence of IGF-1R (P08069 31-1367): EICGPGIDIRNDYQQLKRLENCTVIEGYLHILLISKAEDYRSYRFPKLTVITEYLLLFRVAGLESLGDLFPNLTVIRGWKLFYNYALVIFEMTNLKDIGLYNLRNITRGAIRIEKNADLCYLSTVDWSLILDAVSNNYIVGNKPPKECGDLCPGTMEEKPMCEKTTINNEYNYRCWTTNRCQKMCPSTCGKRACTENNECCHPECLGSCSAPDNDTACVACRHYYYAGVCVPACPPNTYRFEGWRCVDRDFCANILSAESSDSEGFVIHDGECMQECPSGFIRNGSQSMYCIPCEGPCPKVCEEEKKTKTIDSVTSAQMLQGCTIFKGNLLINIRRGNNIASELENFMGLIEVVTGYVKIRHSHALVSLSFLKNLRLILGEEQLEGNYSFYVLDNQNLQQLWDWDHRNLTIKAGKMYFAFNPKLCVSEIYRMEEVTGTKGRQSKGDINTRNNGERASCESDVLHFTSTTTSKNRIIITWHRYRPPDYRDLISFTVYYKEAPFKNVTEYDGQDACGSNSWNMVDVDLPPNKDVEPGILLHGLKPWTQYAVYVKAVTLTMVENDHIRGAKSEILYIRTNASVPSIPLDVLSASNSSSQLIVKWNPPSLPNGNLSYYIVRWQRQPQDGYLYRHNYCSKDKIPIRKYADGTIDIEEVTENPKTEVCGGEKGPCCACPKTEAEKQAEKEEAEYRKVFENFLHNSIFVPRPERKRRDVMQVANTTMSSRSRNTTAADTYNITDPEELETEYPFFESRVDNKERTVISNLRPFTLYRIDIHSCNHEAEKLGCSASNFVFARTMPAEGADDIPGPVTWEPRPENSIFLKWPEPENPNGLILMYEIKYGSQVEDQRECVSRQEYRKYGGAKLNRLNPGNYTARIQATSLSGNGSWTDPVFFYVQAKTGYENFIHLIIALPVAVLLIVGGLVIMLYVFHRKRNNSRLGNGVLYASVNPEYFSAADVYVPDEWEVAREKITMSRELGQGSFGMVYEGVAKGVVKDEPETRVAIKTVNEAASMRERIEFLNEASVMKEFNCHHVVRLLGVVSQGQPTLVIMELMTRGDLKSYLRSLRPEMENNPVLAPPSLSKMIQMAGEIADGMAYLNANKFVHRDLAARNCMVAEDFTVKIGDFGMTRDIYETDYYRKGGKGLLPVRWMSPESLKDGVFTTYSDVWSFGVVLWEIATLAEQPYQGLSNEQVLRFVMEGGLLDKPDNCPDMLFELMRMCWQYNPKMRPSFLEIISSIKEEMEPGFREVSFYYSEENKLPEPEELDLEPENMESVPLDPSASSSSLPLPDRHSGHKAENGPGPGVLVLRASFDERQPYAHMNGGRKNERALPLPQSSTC
# Sequence of CK1 (P48730 whole entry): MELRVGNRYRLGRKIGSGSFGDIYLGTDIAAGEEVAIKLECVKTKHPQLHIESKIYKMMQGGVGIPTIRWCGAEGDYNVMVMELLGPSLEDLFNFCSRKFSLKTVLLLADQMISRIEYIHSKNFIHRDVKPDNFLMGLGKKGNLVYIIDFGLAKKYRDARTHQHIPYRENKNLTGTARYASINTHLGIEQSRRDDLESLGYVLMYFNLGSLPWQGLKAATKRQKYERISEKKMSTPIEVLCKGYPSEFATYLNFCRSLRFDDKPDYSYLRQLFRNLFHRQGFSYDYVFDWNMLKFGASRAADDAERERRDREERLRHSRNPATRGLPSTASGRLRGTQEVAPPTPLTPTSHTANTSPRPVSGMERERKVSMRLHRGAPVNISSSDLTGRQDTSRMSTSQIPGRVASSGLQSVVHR
# Sequence of MELK (Q14680 whole entry): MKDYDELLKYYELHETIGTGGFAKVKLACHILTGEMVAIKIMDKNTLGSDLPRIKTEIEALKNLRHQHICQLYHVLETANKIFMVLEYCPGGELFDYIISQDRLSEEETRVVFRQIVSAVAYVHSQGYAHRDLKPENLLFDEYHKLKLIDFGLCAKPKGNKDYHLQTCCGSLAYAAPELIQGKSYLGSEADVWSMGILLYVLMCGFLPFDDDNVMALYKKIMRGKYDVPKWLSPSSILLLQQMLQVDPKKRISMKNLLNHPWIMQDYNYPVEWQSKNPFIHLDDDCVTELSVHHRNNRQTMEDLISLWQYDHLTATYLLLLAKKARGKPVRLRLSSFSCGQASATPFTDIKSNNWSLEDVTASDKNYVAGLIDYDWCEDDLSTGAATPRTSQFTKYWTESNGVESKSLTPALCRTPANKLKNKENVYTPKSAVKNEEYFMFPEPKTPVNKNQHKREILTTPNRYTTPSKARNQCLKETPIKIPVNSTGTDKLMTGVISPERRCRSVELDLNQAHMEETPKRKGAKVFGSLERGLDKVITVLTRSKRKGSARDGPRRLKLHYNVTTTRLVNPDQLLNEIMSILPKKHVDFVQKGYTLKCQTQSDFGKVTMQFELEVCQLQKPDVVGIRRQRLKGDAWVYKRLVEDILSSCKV
# Sequence of PIM2 (Q9P1W9 whole entry): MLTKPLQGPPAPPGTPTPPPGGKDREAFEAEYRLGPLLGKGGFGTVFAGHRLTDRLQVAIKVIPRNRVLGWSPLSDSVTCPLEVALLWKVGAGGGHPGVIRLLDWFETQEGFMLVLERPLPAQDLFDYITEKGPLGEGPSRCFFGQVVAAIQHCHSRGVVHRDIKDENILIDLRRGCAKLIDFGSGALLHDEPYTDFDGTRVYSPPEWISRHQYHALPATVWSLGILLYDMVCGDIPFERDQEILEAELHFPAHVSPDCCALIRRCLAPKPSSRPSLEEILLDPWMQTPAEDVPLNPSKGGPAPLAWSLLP
# Sequence of MARK3 (P27448 whole entry): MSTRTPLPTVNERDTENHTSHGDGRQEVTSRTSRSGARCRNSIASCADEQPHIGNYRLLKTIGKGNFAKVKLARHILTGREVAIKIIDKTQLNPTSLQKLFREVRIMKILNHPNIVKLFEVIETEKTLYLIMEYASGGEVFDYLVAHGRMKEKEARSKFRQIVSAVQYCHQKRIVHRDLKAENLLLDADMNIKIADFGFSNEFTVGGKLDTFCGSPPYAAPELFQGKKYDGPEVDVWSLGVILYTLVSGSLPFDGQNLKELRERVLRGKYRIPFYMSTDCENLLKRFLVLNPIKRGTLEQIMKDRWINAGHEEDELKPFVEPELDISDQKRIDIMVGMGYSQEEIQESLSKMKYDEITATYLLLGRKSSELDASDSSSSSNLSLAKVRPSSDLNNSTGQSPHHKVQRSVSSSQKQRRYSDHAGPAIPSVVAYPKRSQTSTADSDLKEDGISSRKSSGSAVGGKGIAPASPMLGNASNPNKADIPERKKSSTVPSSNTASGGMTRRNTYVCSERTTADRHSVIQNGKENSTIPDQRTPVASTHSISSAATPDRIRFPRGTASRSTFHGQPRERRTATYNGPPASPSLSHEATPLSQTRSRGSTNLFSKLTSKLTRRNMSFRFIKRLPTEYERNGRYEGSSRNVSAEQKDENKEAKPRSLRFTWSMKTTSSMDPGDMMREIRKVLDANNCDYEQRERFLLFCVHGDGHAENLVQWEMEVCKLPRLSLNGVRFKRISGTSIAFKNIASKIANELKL
# Sequence of S6K1 (P23443 whole entry): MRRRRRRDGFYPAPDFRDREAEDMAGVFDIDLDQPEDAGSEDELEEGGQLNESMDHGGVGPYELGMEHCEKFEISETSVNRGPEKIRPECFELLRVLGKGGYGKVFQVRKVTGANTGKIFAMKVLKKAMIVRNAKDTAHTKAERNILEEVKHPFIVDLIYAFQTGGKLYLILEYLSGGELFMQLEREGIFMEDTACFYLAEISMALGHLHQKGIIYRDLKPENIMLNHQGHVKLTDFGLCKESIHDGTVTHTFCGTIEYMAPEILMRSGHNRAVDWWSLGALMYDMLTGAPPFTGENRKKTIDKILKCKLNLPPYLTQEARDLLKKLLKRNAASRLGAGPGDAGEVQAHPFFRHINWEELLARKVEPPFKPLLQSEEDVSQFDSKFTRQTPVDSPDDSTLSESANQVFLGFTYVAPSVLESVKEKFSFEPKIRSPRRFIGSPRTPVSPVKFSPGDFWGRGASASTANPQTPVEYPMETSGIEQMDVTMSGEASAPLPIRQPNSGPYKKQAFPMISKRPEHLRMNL
# Sequence of SRPK1 (Q96SB4 whole entry): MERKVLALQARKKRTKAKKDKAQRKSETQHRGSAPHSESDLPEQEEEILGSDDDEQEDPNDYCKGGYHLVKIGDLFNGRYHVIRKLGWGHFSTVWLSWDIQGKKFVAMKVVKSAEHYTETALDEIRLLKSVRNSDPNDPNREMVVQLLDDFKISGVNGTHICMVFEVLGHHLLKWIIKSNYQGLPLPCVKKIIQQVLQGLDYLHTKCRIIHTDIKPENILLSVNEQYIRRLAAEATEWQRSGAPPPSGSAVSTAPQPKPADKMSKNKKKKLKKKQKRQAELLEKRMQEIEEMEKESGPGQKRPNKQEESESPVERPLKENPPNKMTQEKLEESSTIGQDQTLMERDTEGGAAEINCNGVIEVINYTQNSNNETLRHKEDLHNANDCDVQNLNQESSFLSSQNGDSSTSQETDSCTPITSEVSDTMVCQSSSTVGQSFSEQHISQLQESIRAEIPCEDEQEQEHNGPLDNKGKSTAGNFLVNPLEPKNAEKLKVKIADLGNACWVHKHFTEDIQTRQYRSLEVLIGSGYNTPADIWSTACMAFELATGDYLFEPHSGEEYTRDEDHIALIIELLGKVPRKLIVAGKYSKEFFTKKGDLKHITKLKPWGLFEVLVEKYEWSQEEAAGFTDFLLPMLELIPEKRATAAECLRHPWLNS
SMILES,remaining activity at 10 µM (S6K1),remaining activity at 10 µM (CK1),remaining activity at 10 µM (CSK),remaining activity at 10 µM (PRAK),remaining activity at 10 µM (Src),remaining activity at 10 µM (IGF-1R),remaining activity at 10 µM (MELK),remaining activity at 10 µM (PIM3),remaining activity at 10 µM (PKBa),remaining activity at 10 µM (MST4),remaining activity at 10 µM (MARK3),remaining activity at 10 µM (SRPK1),remaining activity at 10 µM (JNK2),remaining activity at 10 µM (SGK1),remaining activity at 10 µM (DYRK1A),remaining activity at 10 µM (PIM2),remaining activity at 10 µM (CDK2-Cyclin A),remaining activity at 10 µM (p38g MAPK)
"C[C@H](c1ccccc1)n1c(=O)[nH]c2ncc(-c3ccccc3)nc21 [Compound 14, (R)-6-Phenyl-1-(1-phenylethyl)-1H-imidazo[4,5-b]pyrazin-2(3H)-one]",65%,71%,77%,98%,70%,112%,100%,83%,89%,88%,100%,75%,96%,98%,85%,96%,84%,91%
"O=c1[nH]c2ncc(-c3ccc(F)cc3)nc2n1C1CCCCC1 [Compound 12, 1-Cyclohexyl-6-(4-fluorophenyl)-1H-imidazo[4,5-b]pyrazin-2(3H)-one]",97%,98%,90%,99%,94%,100%,110%,90%,102%,100%,98%,88%,93%,111%,93%,111%,84%,98%
O=c1[nH]c2ncc(-c3ccc(F)cc3)nc2n1CC1CC1 [Compound 10],92%,75%,93%,99%,98%,85%,125%,89%,96%,92%,97%,89%,97%,110%,113%,111%,82%,94%
CC(c1ccccc1)n1c(=O)[nH]c2ncc(-c3ccc(F)cc3)nc21 (stereo not drawn) [Compound 1],81%,75%,100%,103%,80%,122%,118%,83%,99%,90%,110%,80%,104%,104%,79%,113%,89%,98%
